Legend:
Format in all cases: biochemical
[1] = tested on: Factor IX deficient plasma; assay: relative coagulant activity of factor IX proteins (zymogens); details: for relative coagulant activity: factor IX proteins before activation, IXNP = 100%
Description: The following reagents were used. Benzoyl-Ile-Glu-Gly-Arg-p-nitroanilide (SEQ ID NO: 17) (S-2222) was purchased from Helena Laboratories. Dansyl-Glu-Gly-Arg-chloromethyl ketone (DEGR-ck) was obtained from Calbiochem. Phosphatidylcholine, phosphatidylserine, recombinant hirudin, and fatty acid free bovine serum albumin (BSA) were obtained from Sigma Chemical Co. Factor IX and factor VIII deficient plasmas were purchased from George King Biomedicals and aPTT reagent was obtained from Diagnostica Stago. Normal human plasma factor IX (IXNP) and factor X were isolated as described in Bajaj and Birktoft, 1993, Methods Enzymol. 222, 96–128, and factor Xa was prepared as described in Bajaj et al., 1981, Prep. Biochem. 11, 397–412. Purified human factor XIa, protein C, activated protein C, and α-thrombin (IIa) were purchased from Enzyme Research Laboratories (South Bend, Ind.). Recombinant human tissue factor of aa 1–243 containing the transmembrane domain was generously provided by Genentech Inc. (South San Francisco, Calif.) and reconstituted as described in Sabharwal et al., 1995, J. Biol. Chem. 270, 15523–15530. Phosphatidylcholine-phosphatidylserine vesicles (75% phosphatidylcholine, 25% phosphatidylserine) were prepared by the method of Husten et al., 1987, J. Biol. Chem. 262, 12953–12966 as outlined in Sabharwal et al (Id.). Recombinant human factor VIIa was a generous gift of Novo-Nordisk (Copenhagen). Purified human factor VIII was obtained from Dr. Leon Hoyer (American Red Cross, Rockville, Md.). The preparation was free of all other coagulation factors and contained human albumin as a stabilizing agent. Purification of a mouse monoclonal antibody (mAb) that inhibits the interaction of factor IXa with factor VIIIa was as described in Bajaj et al., 1985, J. Biol. Chem. 260:11574–11580. […]

[2] = tested on: Factor IX deficient plasma; assay: coagulant activity of XIa-activated IXa proteins
[3] = biological target: T1, factor X (Homo sapiens, UniProt P00742); assay: factor X activation in complete intrinsic Tenase system (IXa, Ca2+, phospholipid, VIIIa); set-up: Normal human plasma factor IX (IXNP) and factor X were isolated as described in Bajaj and Birktoft; from tissue; host or cells: human plasma (factor X); factor VIII obtained from Dr. Leon Hoyer, American Red Cross; details: phospholipid present; for rate of factor X activation at increased VIIIa: VIIIa increased from 70 pM to 14 nM
T1 sequence (P00742 183-488 limits assumed, one chain of several): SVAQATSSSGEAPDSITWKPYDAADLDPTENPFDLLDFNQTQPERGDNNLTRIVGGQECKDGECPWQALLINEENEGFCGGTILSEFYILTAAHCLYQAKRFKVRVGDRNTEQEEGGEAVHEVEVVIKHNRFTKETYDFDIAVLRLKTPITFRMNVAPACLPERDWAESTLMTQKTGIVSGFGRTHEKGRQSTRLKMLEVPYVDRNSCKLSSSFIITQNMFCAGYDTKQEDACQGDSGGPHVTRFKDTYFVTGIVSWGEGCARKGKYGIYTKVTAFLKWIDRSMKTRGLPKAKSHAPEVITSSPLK
T1 sequence (P00742 41-179 limits assumed, one chain of several): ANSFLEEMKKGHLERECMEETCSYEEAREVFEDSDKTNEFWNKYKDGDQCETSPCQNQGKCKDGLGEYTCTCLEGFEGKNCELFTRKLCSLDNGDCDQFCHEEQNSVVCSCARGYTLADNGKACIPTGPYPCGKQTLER
Procedure: (§1) The ability of each activated mutant to activate factor X in the presence and absence of phospholipid and factor VIIIa was determined as follows. The activation was carried out at 37° C. in a 50 μl reaction volume, in TBS/BSA pH 7.4, for various time periods. At the end of the incubation time period, each reaction mixture received 1 μl of 0.5 M EDTA to stop further generation of factor Xa. A 40 μL aliquot was then added to 0.1 ml quartz cuvette containing S-2222 in 75 μL of TBS/BSA, pH 7.4. The final concentration of S-2222 was 100 μM. The p-nitroaniline release was measured continuously (ΔA405/min) for up to 20 min (Sabharwal et al., 1995 supra; Sabharwal et al., 1997, supra). Factor Xa generated was calculated from a standard curve constructed using factor Xa prepared from insolubilized Russell's viper venom.
(§2) Factor X activation measurements were made under four experimental regimes. In one, Ca^2+ and phospholipid were present. In this system activation was carried out for 5–15 minutes and the concentration of each IXa protein was 20 nM, phospholipid was 25 μM, and factor X was 100 nM. In the second regime, Ca^2+, phospholipid and factor VIIIa were present. […] In the third regime, only Ca^2+ was present. Here, activation was carried out for 2–20 min and concentration of each IXa protein was 400 nM and factor X was 1 μM. Finally, in the fourth regime, Ca^2+ and VIIIa were present. Here, activation was carried out for 15–120 sec and the concentration of each IXa protein was 2 μM, VIIIa was 14 nM, and factor X was 400 nM.
(§3) In all of the above factor X activation experiments, the incubation times chosen were those in which the factor Xa generated was always less than 10 nM. This precautionary measure was taken to prevent activation of factor X by the generated factor Xa (see, e.g., Link. and Castellino, 1982, Arch Biochem. Biophys. 215, 215–221). Further, in those incubation mixtures which contained […], control experiments were also performed in which factor VIIIa was omitted. […] In the presence of factor VIIIa, 10 μM phospholipid was used based upon previous observations (Mathur et al., 1997, supra; van Dieijen et al., 1981, J. Biol. Chem. 256, 3433–3442). The concentrations of factor X selected for each set of reaction conditions are those which are below or at the Km values (van Dieijen et al., supra; Fay and Koshibu, 1998, J Biol. Chem. 273, 19049–19054). In this region of the Michaelis-Menton curve, the rate of formation of factor Xa is proportional to the substrate factor X and therefore to the affinity of the factor IXa enzyme for factor X.
Next, the activation of factor X in a complete intrinsic Tenase system (IXa, Ca^2+, phospholipid, VIIIa) was studied.

[4] = biological target: T1, factor X; assay: factor X activation by IXa proteins, Ca2+ and VIIIa, no phospholipid; set-up: Normal human plasma factor IX (IXNP) and factor X were isolated as described in Bajaj and Birktoft; from tissue; host or cells: human plasma (factor X); factor VIII obtained from Dr. Leon Hoyer, American Red Cross; details: 14 nM VIIIa, 400 nM factor X
Procedure: as §1, §2, §3

[5] = biological target: T2, factor VIIIa (Homo sapiens, UniProt P00451); assay: inhibition of Xa generation by active site-blocked (DEGR) IXa proteins, absence of phospholipid (Kd,app for VIIIa); details: absence of phospholipid
T2 construct: purchased Dr. Leon Hoyer (American Red Cross, Rockville, Md.)
T2 sequence (P00451 20-759 limits assumed): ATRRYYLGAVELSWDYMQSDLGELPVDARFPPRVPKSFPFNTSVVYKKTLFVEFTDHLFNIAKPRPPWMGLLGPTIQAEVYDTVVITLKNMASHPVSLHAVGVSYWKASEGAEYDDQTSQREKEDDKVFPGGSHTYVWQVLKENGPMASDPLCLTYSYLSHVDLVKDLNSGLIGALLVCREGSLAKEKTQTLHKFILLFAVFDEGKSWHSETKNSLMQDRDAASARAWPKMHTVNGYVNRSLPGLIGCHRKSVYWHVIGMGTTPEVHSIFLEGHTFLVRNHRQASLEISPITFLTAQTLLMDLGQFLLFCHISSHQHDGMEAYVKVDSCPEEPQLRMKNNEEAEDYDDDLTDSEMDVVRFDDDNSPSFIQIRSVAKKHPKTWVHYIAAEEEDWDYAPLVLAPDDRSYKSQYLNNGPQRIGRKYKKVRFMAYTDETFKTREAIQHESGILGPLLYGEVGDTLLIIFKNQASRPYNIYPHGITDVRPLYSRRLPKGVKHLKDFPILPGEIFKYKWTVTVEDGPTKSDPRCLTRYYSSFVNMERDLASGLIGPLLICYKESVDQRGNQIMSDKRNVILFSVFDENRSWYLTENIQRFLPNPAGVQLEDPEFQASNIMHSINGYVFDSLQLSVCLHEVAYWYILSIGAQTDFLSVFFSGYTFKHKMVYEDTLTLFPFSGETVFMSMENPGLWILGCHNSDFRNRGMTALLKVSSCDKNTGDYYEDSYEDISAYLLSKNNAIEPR
T2 sequence (P00451 1668-2351 limits assumed): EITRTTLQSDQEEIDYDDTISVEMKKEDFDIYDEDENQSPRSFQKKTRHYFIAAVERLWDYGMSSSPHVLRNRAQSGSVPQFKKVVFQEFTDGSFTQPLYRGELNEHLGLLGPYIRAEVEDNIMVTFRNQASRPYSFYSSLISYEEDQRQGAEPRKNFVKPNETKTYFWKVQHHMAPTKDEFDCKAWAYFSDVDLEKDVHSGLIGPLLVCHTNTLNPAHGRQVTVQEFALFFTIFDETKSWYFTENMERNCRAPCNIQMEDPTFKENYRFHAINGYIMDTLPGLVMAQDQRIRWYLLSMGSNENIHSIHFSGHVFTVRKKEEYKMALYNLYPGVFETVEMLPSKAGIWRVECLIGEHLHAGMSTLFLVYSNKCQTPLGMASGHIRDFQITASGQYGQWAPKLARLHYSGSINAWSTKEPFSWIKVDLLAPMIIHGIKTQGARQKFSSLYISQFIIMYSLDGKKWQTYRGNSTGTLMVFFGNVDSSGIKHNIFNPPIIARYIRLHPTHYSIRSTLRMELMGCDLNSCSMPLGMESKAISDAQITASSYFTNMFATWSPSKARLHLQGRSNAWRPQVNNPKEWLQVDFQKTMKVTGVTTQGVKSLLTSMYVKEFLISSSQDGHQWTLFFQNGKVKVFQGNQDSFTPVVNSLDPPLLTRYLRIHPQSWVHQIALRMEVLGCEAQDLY
Procedure: (§4) Apparent Kds of factor VIIIa binding to various active site-blocked factor IXa proteins were determined from inhibition experiments as detailed in Mathur et al., 1997, supra. […] Reactions were carried out for 2 min and the rates of factor X activation were measured as outlined above.
(§5) Various DEGR-ck-inhibited factor IXa proteins were prepared for these experiments as follows. IXNP, IXWT, and each mutant factor IX at 200 μg/ml was activated by factor XIa (2 μg/ml) for 90 min. in TBS, pH 7.4 (0.05 M Tris, 0.15 M NaCl, pH 7.4) containing 5 mM Ca^2+.
(§6) Enzymol. 74, 481–508 given below:
(§7) [formula] where y is the rate of Xa formation in the presence of a given concentration of DEGR-IXa protein represented by x, a is the maximum rate of Xa formation in the absence of DEGR-IXa, and s is the slope factor. Each point was weighted equally and the data were fitted to Equation 1 using the nonlinear regression analysis program obtained from Erithacus Software (GraFit). […] To obtain the Kd,app values for the interaction of DEGR-IXa proteins with factor VIIIa, the following equation was used, as described by Cheng and Prusoff, 1973, Biochem. Pharmacol. 22, 3099–3108 and further discussed by Craig, 1993, Trends Pharmacol. Sci. 6, 68–71.

[6] = biological target: T2, factor VIIIa; assay: inhibition of Xa generation by active site-blocked (DEGR) IXa proteins, presence of phospholipid (Kd,app for VIIIa); details: presence of phospholipid
Procedure: as §4, §5, §6, §7

Substance | relative coagulant activity [1] | coagulant activity as compared to IXaNP [2] | other results
IXD332Y: recombinant factor IX point mutant D332Y | ~2% | – | –
IXL337I: recombinant factor IX point mutant L337I | ~1% | – | –
IXL3301: recombinant factor IX point mutant L330I in helix-330 of protease domain | ~8% | – | –
IXNP: Normal human plasma factor IX | 100% | – | coagulant activity (specific) ([1]; plasma factor IX): 180±10 units/mg
IXR333L: recombinant factor IX point mutant R333L | 0.3% | – | –
IXR333Q: recombinant factor IX point mutant R333Q | ~0.5% | – | –
IXR338Q: recombinant factor IX point mutant R338Q | ~65% | – | –
IXT335A: recombinant factor IX point mutant T335A | ~40% | – | –
IXWT: recombinant wild-type factor IX [reference compound] | ~90% | – | –
IXaD332Y: activated factor IX mutant D332Y | – | ~2% | rate of factor X activation at increased VIIIa [3]: ~4.1 nM/min
IXaL330I: activated factor IX mutant L330I | – | ~7% | X-activation rate, PL-minus system [4]: 0.94 ± 0.03 nM/min; X-activation rate, PL-plus system ([3]; 70 pM VIIIa, 0.5 nM IXa, 15 nM X): 0.95 ± 0.07 nM/min
IXaL337I: activated factor IX mutant L337I | – | ~0.8% | rate of factor X activation at increased VIIIa [3]: ~3.2 nM/min
IXaR333L: activated factor IX mutant R333L | – | ~0.4% | rate of factor X activation at increased VIIIa [3]: ~2.7 nM/min
IXaR333Q: activated factor IX mutant R333Q | – | ~0.6% | rate of factor X activation at increased VIIIa [3]: ~2.4 nM/min
IXaR338Q: activated factor IX mutant R338Q | – | ~80% | X-activation rate, PL-minus system [4]: 2.22 ± 0.15 nM/min
IXaWT: factor XIa-activated recombinant wild-type factor IX [reference compound] | – | ~95% | –
IXahelixVII: activated factor IX chimera with helix 330–338 replaced by factor VII residues | – | not measurable | rate of factor X activation at increased VIIIa [3]: not measurable
protein C: Purified human protein C, control protein [reference compound] | – | – | competition with IXa in binding to VIIIa / interaction with VIIIa [5]: neither protein C nor DEGR-activated protein C competed with IXa in binding to VIIIa; competition with IXa in binding to VIIIa / interaction with VIIIa [6]: neither protein C nor DEGR-activated protein C competed with IXa in binding to VIIIa

Reference: patent publication US7109170B2, “Region of factor IXa protease domain that interacts with factor VIIIa and methods therefor” (Saint Louis University, priority 1999, dated 2006)
